Data: the supplement of paper PMC5579334

Columns and labels:
HS-PSS [1] = assay: drug sensitivity score (DSS, CellTiter-Glo viability, 72 h) (DSS (dimensionless)); higher = more sensitive; extreme values may be limits of the assay
How it was run: (§1)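 Viability of MPNST cell lines and primary human Schwann cells was read as CellTiter-Glo ATP luminescence after 72 h at 37 °C, 5% CO2, in 384-well plates seeded with 750–1000 cells per well. Each compound had been preprinted at five concentrations in 10-fold steps. Signals were scaled between vehicle and positive-control wells, duplicates averaged where present, and fitted with four-parameter logistic curves. Drug sensitivity score and relative IC50 (censored at the top concentration) come from those fits, and percent inhibition is taken at the top concentration.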

HS-Sch-2 [2] = assay: as above
How it was run: as §1

YST-1 [3] = assay: as above
How it was run: as §1

HS-PSS [4] = assay: drug sensitivity score (DSS, CellTox-Green cytotoxicity, 72 h) (DSS (dimensionless)); higher = more cytotoxic; extreme values may be limits of the assay
How it was run: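 MPNST cell lines and primary human Schwann cells were grown for 72 h at 37 °C in 384-well plates containing five 10-fold compound dilutions. CellTox-Green, added before seeding at a final 1:1000 dilution, gave fluorescence from DNA released by disrupted cells, and signals were scaled to vehicle and positive-control wells. Curves were fitted with a four-parameter logistic model. Drug sensitivity score and relative IC50 come from these fits, with IC50 censored at the top concentration.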

HS-PSS [5] = assay: % inhibition of CellTiter-Glo viability at highest tested concentration (72 h), relative to DMSO and benzethonium chloride controls; higher = more inhibition
How it was run: as §1

HS-Sch-2 [6] = assay: as above
How it was run: as §1

YST-1 [7] = assay: as above
How it was run: as §1

Row | SMILES | drug sensitivity score (HS-PSS [1]) | drug sensitivity score (HS-Sch-2 [2]) | drug sensitivity score (YST-1 [3]) | drug sensitivity score (HS-PSS [4]) | % inhibition (HS-PSS [5]) [%] | % inhibition (HS-Sch-2 [6]) [%] | % inhibition (YST-1 [7]) [%]
1 | COc1cccc2c1C(=O)c1c(O)c3c(c(O)c1C2=O)C[C@@](O)(/C(CO)=N/NC(=O)CCCCCN1C(=O)C=CC1=O)C[C@@H]3O[C@H]1C[C@H](N)[C@H](O)[C@H](C)O1 [Aldoxorubicin] (max concentration tested 1000 nM) | 9.01 | 11 | 14.4 | 2.15 | 97.2 | 101 | 101
2 | CCc1cc2c(cc1N1CCC(N3CCOCC3)CC1)C(C)(C)c1[nH]c3cc(C#N)ccc3c1C2=O [Alectinib] (max concentration tested 1000 nM) | 7.01 | 0 | 0.28 | 0 | 42.8 | 2.24 | 17.5
3 | Cc1nc(NC(=O)N2CCC[C@H]2C(N)=O)sc1-c1ccnc(C(C)(C)C(F)(F)F)c1 [Alpelisib] (max concentration tested 2500 nM) | 0.35 | 1.18 | 7.32 | 0 | 13 | 21.2 | 63.6
4 | COc1cc(NS(C)(=O)=O)ccc1Nc1c2ccccc2nc2ccccc12 [Amsacrine] (max concentration tested 10000 nM) | 5.76 | 11.1 | 15.6 | 1.27 | 55 | 81.6 | 86.6
5 | S=C(NCc1ccc2c(c1)OCO2)N1CCN(c2ncnc3c2oc2ccccc23)CC1 [Amuvatinib] (max concentration tested 10000 nM) | 9.62 | 6.77 | 1.22 | 0 | 83.6 | 86.5 | 31.3
6 | N#CC1(c2ccc(NC(=O)c3cccnc3NCc3ccncc3)cc2)CCCC1 [Apatinib] (max concentration tested 10000 nM) | 0 | 0 | 1.19 | 0 | 11.6 | -2.67 | 18.9
7 | Cc1c(CN2CCN(C(=O)[C@H](C)O)CC2)sc2c(N3CCOCC3)nc(-c3cnc(N)nc3)nc12 [Apitolisib] (max concentration tested 10000 nM) | 8.39 | 9.07 | 18.3 | 0 | 64.5 | 71.5 | 86.9
8 | Cc1cc(-c2nc(-c3ccc(OC(F)(F)F)cc3)no2)nn1Cc1ccnc(N2CCN(C3CC3)CC2)c1 [BAY 87-2243] (max concentration tested 1000 nM) | 31.7 | 26.4 | 2.18 | 0 | 74.5 | 65.9 | 15.5
9 | Nc1nc(Nc2ccc3c(c2)CC[C@@H](N2CCCC2)CC3)nn1-c1cc2c(nn1)-c1ccccc1CCC2 [BGB324] (max concentration tested 10000 nM) | 2.95 | 14.4 | 7.59 | 0 | 23.7 | 99.5 | 99.3
10 | O=C(Nc1cccc(Nc2ncc(Br)c(NCCc3cnc[nH]3)n2)c1)N1CCCC1 [BX-912] (max concentration tested 10000 nM) | 3.51 | 4.94 | 8.47 | 0 | 44.8 | 78.4 | 67
11 | Cc1ccc(NC(=O)c2ccc(CN3CC[C@H](N(C)C)C3)c(C(F)(F)F)c2)cc1Nc1nccc(-c2cncnc2)n1 [Bafetinib] (max concentration tested 1000 nM) | 0 | 0.33 | 1.49 | 0 | -10.6 | 16.8 | 28.5
12 | CCS(=O)(=O)N1CC(CC#N)(n2cc(-c3ncnc4[nH]ccc34)cn2)C1 [Baricitinib] (max concentration tested 2500 nM) | 0 | 0 | 0 | 0 | 1.87 | 4.94 | -0.02
13 | N#CC(c1ccnc(OCc2ccc(CN3CCOCC3)cc2)n1)c1nc2ccccc2s1 (stereo unspecified) [Bentamapimod] (max concentration tested 10000 nM) | 6.75 | 3.69 | 2.11 | 1.1 | 75.6 | 58.6 | 26.9
14 | Cn1cnc2c(F)c(Nc3ccc(Br)cc3F)c(C(=O)NOCCO)cc21 [Binimetinib] (max concentration tested 1000 nM) | 0 | 0.81 | 0 | 0 | 7.79 | 21.1 | 6.26
15 | CC[C@H](NC(=O)[C@H](C)NC)C(=O)N1C[C@@H](O)C[C@H]1Cc1c(-c2[nH]c3cc(F)ccc3c2C[C@@H]2C[C@H](O)CN2C(=O)[C@H](CC)NC(=O)[C@H](C)NC)[nH]c2cc(F)ccc12 [Birinapant] (max concentration tested 1000 nM) | 0 | 0 | 0 | 0 | 10.7 | 6.12 | 2.35
16 | CN(C)c1cc2c(cc1Sc1nc3c(N)nccc3n1CCNCC(C)(C)C)OCO2 [CUDC-305] (max concentration tested 10000 nM) | 13.1 | 19.6 | 12.6 | 4.43 | 84.7 | 101 | 81.7
17 | COc1ccc(-c2nc(N3CCOCC3)c3sc(CN(C)c4ncc(C(=O)NO)cn4)cc3n2)cn1 [CUDC-907] (max concentration tested 10000 nM) | 31.6 | 31.9 | 40.4 | 19.2 | 98.6 | 99.5 | 100
18 | Cc1nc(N)sc1-c1ccnc(Nc2ccc(N3CCOCC3)cc2)n1 [CYC-116] (max concentration tested 10000 nM) | 6.5 | 4.97 | 8.36 | 0 | 65.9 | 54.2 | 58.8
19 | CO[C@H]1C(=O)[C@]2(C)[C@@H](OC)C[C@H]3OC[C@@]3(OC(C)=O)[C@H]2[C@H](OC(=O)c2ccccc2)[C@]2(O)C[C@H](OC(=O)[C@H](O)[C@@H](NC(=O)OC(C)(C)C)c3ccccc3)C(C)=C1C2(C)C [Cabazitaxel] (max concentration tested 1000 nM) | 1.5 | 33.6 | 30.7 | 0.1 | 41.5 | 93.5 | 74
20 | CC[C@@]1(O)C(=O)OCc2c1cc1n(c2=O)Cc2cc3ccccc3nc2-1 [Camptothecin] (max concentration tested 5000 nM) | 14.9 | 22.2 | 23.6 | 10.2 | 93.1 | 99.9 | 99.6
21 | CCS(=O)(=O)N1CCN(c2ccc(Nc3ncc(C(N)=O)c(NC4CC4)n3)cc2)CC1 [Cerdulatinib] (max concentration tested 10000 nM) | 3.47 | 4.87 | 0 | 0 | 40.3 | 58.9 | -4.68
22 | Cc1cc(Nc2ncc(Cl)c(Nc3ccccc3S(=O)(=O)C(C)C)n2)c(OC(C)C)cc1C1CCNCC1 [Ceritinib] (max concentration tested 2500 nM) | 10.6 | 1.13 | 8.09 | 0.17 | 64.5 | 30.9 | 82.3
23 | CCN(CC)CCCC(C)Nc1ccnc2cc(Cl)ccc12 (stereo unspecified) [Chloroquine] (max concentration tested 100000 nM) | 18.7 | 17.1 | 9.66 | 9.74 | 102 | 102 | 102
24 | CC(C)[C@H]1C(=O)N[C@@H](CCCNC(=N)N)C(=O)NCC(=O)N[C@@H](CC(=O)O)C(=O)N[C@H](Cc2ccccc2)C(=O)N1C [Cilengitide] (max concentration tested 10000 nM) | 0 | 1.06 | 0 | 0 | 1.31 | 27 | -3.66
25 | N.N.[Cl][Pt][Cl] [Cisplatin] (max concentration tested 100000 nM) | 13.1 | 23.1 | 13.8 | 9.13 | 86.4 | 100 | 95.9
26 | O=C(c1ccc(F)c(F)c1Nc1ccc(I)cc1F)N1CC(O)([C@@H]2CCCCN2)C1 [Cobimetinib] (max concentration tested 1000 nM) | 4.46 | 4.02 | 0 | 0.01 | 49.3 | 69.5 | -5.92
27 | COc1c(OCCCN2CCOCC2)ccc2c1N=C(NC(=O)c1cnc(N)nc1)N1CCN=C21 [Copanlisib] (max concentration tested 1000 nM) | 1.69 | 7.87 | 17.5 | 0 | 44 | 70.5 | 92.5
28 | CCN(CC)CCN(Cc1ccc(-c2ccc(C(F)(F)F)cc2)cc1)C(=O)Cn1c(SCc2ccc(F)cc2)nc(=O)c2c1CCC2 [Darapladib] (max concentration tested 1000 nM) | 3.85 | 2.38 | 1.09 | 3.71 | 53.3 | 33 | 19.5
